Experimental data reported in US10894803B2, “Multi-functionalized polysaccharide compounds and use thereof for targeting the cation-independent mannose 6-phosphate receptor” (NANOMEDSYN, priority 2015, dated 2021).
Like-named read-outs stand apart in the source and are kept apart here.

Legend:
CI-M6PR = CI-M6PR (Homo sapiens (Human), UniProt P11717); test: Competitive binding of M6P analogs to biotinylated CI-M6PR on adsorbed pentamannose 6-phosphate (PMP); conditions: for Relative affinity: relative to M6C-Ethyl-NH2 taken as reference = 1
Protocol: 96-Well plates (Maxisorp Nunc) are incubated overnight at 4° C. with 200 μl of PMP (pentamannose 6-phosphate) at the concentration of 200 μg·ml^−1, in carbonate buffer (NaHCO3/Na2CO3 at 0.1M, pH 9.6). The following day, the solution containing the residual PMP is discarded and the wells are saturated, for 1 h at ambient temperature, with 360 μl of 1% gelatin (Type A from Porcine Skin) diluted in PBS (1.9 mM NaH2PO4, 8.1 mM Na2PO4 and 154 mM NaCl, pH 7.4). The wells are then rinsed five times with PBS to which 0.2% gelatin has been added. All the washes and also the dilutions are carried out in the solution of PBS to which 0.2% gelatin has been added. The M6P analogs to be tested at the various concentrations (from 10^−2 to 10^−7 M) are pre-incubated in the presence of pre-biotinylated CI-M6PR (M6PRb) ([…]) for 20 min, then 200 μl of the mixture are incubated in the wells for 2 h, at ambient temperature. After three washes, the wells are incubated for 1 h with a streptavidin-peroxidase solution (250 μl per well; 3.10^−8 M). After three more washes, 200 μl of a solution of OPD (o-phenylenediamine, 1 mg·ml^−1 in citrate buffer, pH 5.0, and 1 μl 30% H2O2.ml^−1; Sigma Aldrich) are added. After incubation for 20 min in the dark at ambient temperature, the optical densities are measured at the wavelength of 450 nm.
The conjugate of formula (III) is evaluated for its affinity with CI-M6PR. The binding affinity of rhGAA and of the rhGAA-M6Pn-α(1,2)-Man-Ethyloxyamino conjugate (28) was evaluated by means of a competitive binding technique with CI-M6PR described in example 2 and compared with the affinity of M6P.

[1] = test system: myoblasts from an adult patient suffering from Pomp disease; test: Cellular maturation of internalized GAA by Western blot; type: cell-based, human; conditions: 50 nM, 48 h incubation, healthy subject myoblasts = 100%
Protocol: The myoblasts are incubated for 48 h in the presence of 50 nM rhGAA or of the rhGAA-M6Pn-α(1,2)-Man-Ethyloxyamino conjugate (28) (conjugate of formula (III)), then lysed and the proteins are extracted. The cellular maturation of the internalized GAA enzyme in the myoblasts of patients suffering from Pomp disease is studied by the SDS polyacrylamide gel separation technique, followed by immunodetection of the GAA by Western blot with an anti-human GAA antibody (anti-LYAG, Genetex) or an anti-human actin antibody (Invitrogen). […] This experiment is representative among two experiments. The thick arrow in FIG. 4 indicates the intermediate form of GAA. The black arrow indicates the mature form of GAA (60-70 kDa).
The mature form of 60 kDa is quantified by considering the band present in the myoblasts originating from a healthy subject to be 100%. The expression of GAA 60 kDa in the patient myoblasts corresponds to 1% of the GAA of a healthy subject and is not increased in the myoblasts treated with rhGAA. Conversely, the treatment with the rhGAA-M6Pn-α(1,2)-Man-Ethyloxyamino conjugate (28) increases the 60-70 kDa band to 47% of the GAA of a healthy subject. […] This activity is important for an application in the treatment of Pomp disease by enzyme therapy, but can also be applicable to all lysosomal diseases.

[2] = test system: myoblasts of patients suffering from the adult form of Pomp disease; test: Internalization: GAA catalytic activity (4-MUG substrate) in cell extracts of treated myoblasts; type: cell-based, human; conditions: 50 nM, 48 h incubation; compared with rhGAA
Protocol: The myoblast-type cells originating from an adult patient suffering from Pomp disease are maintained in primary culture.
The catalytic activity of GAA is measured in the cell extracts using the synthetic substrate 4-methylumbelliferyl-α-D-glucopyranoside (4-MUG). This substrate and the molecular weight standards are obtained from Sigma. The GAA activity in the cell extracts (20 μl) is measured in a reaction volume of 75 μl containing 50 mM citric acid, 115 mM K2HPO4, 110 mM KCl, 10 mM NaCl, pH 5.0, with 6 mM 4-MUG, for 10 min at ambient temperature. The reaction is stopped with 75 μl of 0.1 M Tris HCl, pH 8. The fluorescence is read with an excitation filter at 355 nm and an emission filter at 460 nm in 96-well plates, and compared to a standard curve obtained with 4-methylumbelliferone. The catalytic activity is expressed per mg of protein. Mean±standard deviation.

[3] = inhibition of CI-M6PR binding to adsorbed PMP, Table 1, read-out: IC50
[4] = competitive binding technique of example 2, Example 4 experiments, read-out: 50% inhibitory concentration (IC50), affinity for CI-M6PR

Sequence of CI-M6PR (P11717 41-2491): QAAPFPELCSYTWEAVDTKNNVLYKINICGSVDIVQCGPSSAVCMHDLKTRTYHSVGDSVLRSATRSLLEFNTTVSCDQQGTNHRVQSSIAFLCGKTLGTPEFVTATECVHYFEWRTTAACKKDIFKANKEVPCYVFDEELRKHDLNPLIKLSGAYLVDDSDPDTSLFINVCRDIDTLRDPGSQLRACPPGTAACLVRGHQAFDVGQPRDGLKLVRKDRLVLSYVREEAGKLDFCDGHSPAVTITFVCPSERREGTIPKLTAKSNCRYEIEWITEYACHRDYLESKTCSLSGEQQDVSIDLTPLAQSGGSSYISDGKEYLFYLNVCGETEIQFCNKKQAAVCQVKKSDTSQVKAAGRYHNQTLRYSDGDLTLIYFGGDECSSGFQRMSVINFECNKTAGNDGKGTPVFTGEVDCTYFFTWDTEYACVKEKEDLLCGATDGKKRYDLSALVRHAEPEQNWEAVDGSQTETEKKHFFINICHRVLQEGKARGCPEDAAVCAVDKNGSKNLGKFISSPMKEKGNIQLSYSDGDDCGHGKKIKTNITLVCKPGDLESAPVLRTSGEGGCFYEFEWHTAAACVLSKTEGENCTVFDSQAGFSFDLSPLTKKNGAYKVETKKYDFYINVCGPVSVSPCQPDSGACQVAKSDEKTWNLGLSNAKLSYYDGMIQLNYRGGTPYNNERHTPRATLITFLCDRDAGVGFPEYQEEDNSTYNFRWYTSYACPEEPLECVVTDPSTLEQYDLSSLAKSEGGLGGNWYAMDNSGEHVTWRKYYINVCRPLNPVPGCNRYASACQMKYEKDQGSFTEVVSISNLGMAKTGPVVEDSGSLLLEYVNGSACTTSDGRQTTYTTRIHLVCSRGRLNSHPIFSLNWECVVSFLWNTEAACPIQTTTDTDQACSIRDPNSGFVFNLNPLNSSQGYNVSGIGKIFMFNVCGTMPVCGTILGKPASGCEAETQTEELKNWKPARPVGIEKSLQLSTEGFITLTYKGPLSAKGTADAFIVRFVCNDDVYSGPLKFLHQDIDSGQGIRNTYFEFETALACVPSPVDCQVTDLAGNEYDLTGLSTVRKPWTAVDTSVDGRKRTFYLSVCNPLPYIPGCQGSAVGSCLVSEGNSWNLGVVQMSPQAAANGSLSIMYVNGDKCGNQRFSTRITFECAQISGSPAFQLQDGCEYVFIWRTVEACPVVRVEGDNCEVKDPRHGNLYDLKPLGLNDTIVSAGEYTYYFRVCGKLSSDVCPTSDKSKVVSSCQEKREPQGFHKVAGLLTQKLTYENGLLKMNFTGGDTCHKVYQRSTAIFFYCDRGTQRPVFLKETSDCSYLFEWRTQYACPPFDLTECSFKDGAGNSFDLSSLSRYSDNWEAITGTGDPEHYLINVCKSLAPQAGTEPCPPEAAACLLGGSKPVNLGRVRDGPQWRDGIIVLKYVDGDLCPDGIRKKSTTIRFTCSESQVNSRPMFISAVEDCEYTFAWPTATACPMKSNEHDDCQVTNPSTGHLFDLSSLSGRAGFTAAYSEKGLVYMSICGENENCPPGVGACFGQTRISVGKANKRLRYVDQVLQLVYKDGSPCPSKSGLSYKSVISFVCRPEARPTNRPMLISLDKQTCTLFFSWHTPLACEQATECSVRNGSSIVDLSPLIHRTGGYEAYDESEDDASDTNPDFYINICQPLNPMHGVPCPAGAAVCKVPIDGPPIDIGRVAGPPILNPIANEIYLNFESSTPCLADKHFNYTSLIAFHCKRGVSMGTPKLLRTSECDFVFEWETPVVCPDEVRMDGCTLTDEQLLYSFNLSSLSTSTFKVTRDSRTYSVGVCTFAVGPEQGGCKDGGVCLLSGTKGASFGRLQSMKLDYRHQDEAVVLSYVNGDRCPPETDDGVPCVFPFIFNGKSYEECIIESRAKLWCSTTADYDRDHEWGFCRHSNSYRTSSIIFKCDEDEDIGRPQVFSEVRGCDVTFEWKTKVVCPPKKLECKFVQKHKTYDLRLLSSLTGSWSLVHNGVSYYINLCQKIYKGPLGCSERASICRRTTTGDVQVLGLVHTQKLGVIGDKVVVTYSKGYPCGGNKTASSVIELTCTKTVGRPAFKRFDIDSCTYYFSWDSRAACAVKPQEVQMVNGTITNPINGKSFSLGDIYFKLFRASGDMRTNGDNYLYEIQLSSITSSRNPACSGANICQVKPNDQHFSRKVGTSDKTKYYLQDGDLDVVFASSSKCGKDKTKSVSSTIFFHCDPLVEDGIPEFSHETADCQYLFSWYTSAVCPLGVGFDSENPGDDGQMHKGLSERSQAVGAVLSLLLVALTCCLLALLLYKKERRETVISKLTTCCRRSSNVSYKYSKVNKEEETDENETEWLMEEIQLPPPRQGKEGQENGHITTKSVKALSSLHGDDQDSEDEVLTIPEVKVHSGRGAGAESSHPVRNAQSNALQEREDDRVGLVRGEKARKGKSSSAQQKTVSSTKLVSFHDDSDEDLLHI

IC50 (CI-M6PR; [3]) [µM] | Relative affinity (CI-M6PR) | IC50 (CI-M6PR; [4]) [µM] | Molecule | mature form of GAA (60-70 kDa band), % of the GAA of a healthy subject [1] | other results
29 | 3.4 | – | NCCO[C@H]1OC(CCP(=O)(O)O)[C@@H](O)[C@H](O)C1O (stereo partly drawn) [M6Pn-Ethyl-NH2] | – | –
– | – | 30 | O=C[C@@H](O)[C@@H](O)[C@H](O)[C@H](O)COP(=O)(O)O [Compound M6P, mannose 6-phosphate] | – | –
17 | 5.8 | – | NCCO[C@H]1O[C@H](CO)[C@@H](O)[C@H](O)[C@@H]1O[C@H]1O[C@H](CCC(=O)O)[C@@H](O)[C@H](O)[C@@H]1O [Compound 24, aminoethyl 6,7-dideoxy-7-hydroxycarbonyl-α-D-manno-heptopyranosyl-(1→2)-α-D-mannopyranoside] | – | –
– | – | 0.3 | rhGAA: recombinant human acid alpha-glucosidase produced in CHO cells, approximately 110 000 Da | not increased | affinity for CI-M6PR, times lower than the rhGAA-M6Pn-α(1,2)-Man-Ethyloxyamino conjugate (28) (CI-M6PR; ratio of IC50 values): 5.5 times
99 | 1 | – | NCCO[C@H]1OC(CCC(=O)O)[C@@H](O)[C@H](O)C1O (stereo partly drawn) [M6C-Ethyl-NH2] | – | –
– | – | – | rhGAA-M6Pn-α(1,2)-Man-Ethyloxyamino (28): rhGAA functionalized on oligosaccharide chains with phosphonate disaccharide analog 28; conjugate of formula (III) | 47% | cell penetration of GAA measured through catalytic activity on 4-MUG [2]: significantly increases
